Key:
[1] = system: Rat1a fibroblasts; assay: Effect of exposure time on toxicity in Rat1a fibroblasts; type: cell-based, rat; conditions: for toxicity with a two hour exposure: additional experiments; for toxicity of four hour versus six hour exposure: total incubation 96 hours
Method: (§1) Cells were plated at a density of 500 cells per well in opaque 96 well plates (Packard) in a volume of 135 μL per well of the appropriate media. The plates were incubated overnight to allow cell adherence. Seven two-fold dilutions of the test compounds were added in a volume of 15 μL per well in triplicate, and 15 μL of media containing an appropriate concentration of DMSO was added to control wells in triplicate. Plates were incubated at 37° C. for 96 hours. The media was then replaced with 100 μL per well of the appropriate media containing 2 μCi/mL of (methyl-^3H) thymidine (Amersham Pharmacia Biotech), then plates were incubated for a further 24 hours at 37° C. Cells were washed three times with PBS, then 100 μL per well of scintillant was added (Microscint 20, Packard), and sealed plates were counted in a microplate reader (Packard Topcount). For suspension chicken cells, (methyl-^3H) thymidine was added directly to the drug-containing media at a concentration of 20 μCi/mL (comprising one tenth of the media volume) and incubated overnight. The suspension cells were transferred to a UniFilter GF/C plate (Packard) and washed with PBS in a plate washer (Packard). After drying, 25 μL per well of scintillant (Microscint 20, Packard) was added, and sealed plates were counted. Toxicity is expressed as a percentage of the control counts. For experiments involving shorter exposures to compounds, cells were grown in the presence of compound for the appropriate time, then the media was replaced with fresh drug-free media, and incubation continued for the remainder of 96 hours, followed by the normal tritiated thymidine uptake and washing protocol.

[2] = system: chicken pre-B cell line DT40; assay: Thymidine incorporation toxicity assay in isogenic DT40 cells with or without KU70, RAD52, RAD54; type: cell-based; conditions: for effect of loss of KU70 on toxicity: DT40 with or without KU70; for effect of loss of homologous recombination (RAD52 or RAD54) on toxicity: DT40 with or without RAD52 or RAD54
Method: (§2) Cell lines were grown at 37° C. in an atmosphere of 5% CO2. The chicken pre-B cell line DT40 and its derivatives (Bezzubova, et al., Cell 89: 185–93 (1997), Takata, et al., EMBO Journal 17: 5497–508 (1998), Yamaguchi-Iwai, et al., Molecular & Cellular Biology 18: 6430–5 (1998)) were grown in RPMI containing 10% fetal calf serum and 1% chicken serum. The remaining cell lines were grown in DMEM with 10% fetal calf serum.
(§3) Toxicity assays in mammalian cell lines were performed using tritiated thymidine incorporation as a measure of the number of viable cells. […] Drug toxicity was measured as follows:
as §1
In the case of Topo II poisons, the drug/enzyme complex directly produces a DSB, which could occur in all phases of the cell cycle and can apparently be repaired by either DSB repair pathway. Topo I poisons, however, create a single strand break that is converted to a DSB by passage of a replication fork during ongoing DNA synthesis (D'Arpa, et al., Cancer Research 50: 6919–24 (1990), Hsiang, et al., Cancer Research 49: 5077–82 (1989), Holm, et al., Cancer Research 49: 6365–8 (1989)). It has been proposed that DSB's created in this context can only be repaired by homologous recombination, additionally requiring proteins involved in sister chromatid cohesion (Castano, et al., Genes & Development 10: 2564–76 (1996), Castano, et al., Nucleic Acids Research 24: 2404–10 (1996), Walowsky, et al., Journal of Biological Chemistry 274: 7302–8 (1999)).

[3] = Cell based assays (toxicity, unspecified)
[4] = system: ACHN, SW620, A549, MDA-N; assay: Thymidine incorporation toxicity assay in four cancer derived cell lines; type: cell-based, human; conditions: for correlation between MDR1 activity and toxicity/sensitivity: A549, SW620, ACHN (MDR1 10, 31, 120); for toxicity in human cancer and vertebrate cells: FIG. 4
Method: as §2, §3, §1
A common mechanism of tumor resistance to chemotherapeutic agents is overexpression of the drug efflux protein MDR1 (Kane, et al., Advances in Drug Research 28: 182–252 (1996), Nooter, et al., Leukemia Research 18: 233–43 (1994)). MDR1 is overexpressed in many tumor derived cell lines (for instance see http://dtp.nci.nih.gov/), and its overexpression inversely correlates with sensitivity to certain compounds (Kane, et al., Advances in Drug Research 28: 182–252 (1996)).

[5] = target: T1, purified Topo I (Homo sapiens, UniProt P11387); assay: In vitro assay for DNA strand-break formation in the presence of purified Topo I; type: biochemical; conditions: purified Topo I, in vitro; data not shown
T1 sequence (P11387 1-765): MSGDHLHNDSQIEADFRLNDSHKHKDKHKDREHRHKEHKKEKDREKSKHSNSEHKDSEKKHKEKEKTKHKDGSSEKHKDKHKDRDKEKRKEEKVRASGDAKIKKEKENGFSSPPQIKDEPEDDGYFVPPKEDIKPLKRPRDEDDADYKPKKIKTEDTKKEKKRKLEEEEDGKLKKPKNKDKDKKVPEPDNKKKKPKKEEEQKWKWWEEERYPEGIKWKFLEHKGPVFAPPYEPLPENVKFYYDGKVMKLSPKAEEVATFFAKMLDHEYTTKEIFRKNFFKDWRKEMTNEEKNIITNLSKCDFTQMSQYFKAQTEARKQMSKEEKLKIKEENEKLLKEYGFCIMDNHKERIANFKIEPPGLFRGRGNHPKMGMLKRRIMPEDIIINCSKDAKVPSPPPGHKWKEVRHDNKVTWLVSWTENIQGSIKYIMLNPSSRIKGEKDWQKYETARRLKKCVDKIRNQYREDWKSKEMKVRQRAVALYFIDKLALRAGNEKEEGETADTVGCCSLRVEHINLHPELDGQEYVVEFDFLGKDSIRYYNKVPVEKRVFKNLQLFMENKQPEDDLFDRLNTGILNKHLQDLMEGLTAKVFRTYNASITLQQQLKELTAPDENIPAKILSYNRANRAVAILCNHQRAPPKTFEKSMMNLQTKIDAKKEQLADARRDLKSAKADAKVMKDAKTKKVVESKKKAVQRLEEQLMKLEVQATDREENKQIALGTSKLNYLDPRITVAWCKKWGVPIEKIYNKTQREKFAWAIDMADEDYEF

SMILES	effectiveness of 96 hour exposure relative to four hour exposure [1]	toxicity with a two hour exposure [1]	toxicity of four hour versus six hour exposure [1]	effect of loss of KU70 on toxicity [2]	effect of loss of homologous recombination (RAD52 or RAD54) on toxicity [2]	IC50 compared to camptothecin [3]	relative sensitivity of ACHN and A549 [4]	correlation between MDR1 activity and toxicity/sensitivity [4]	toxicity in human cancer and vertebrate cells [4]	cell line against which most effective ([4]; four tumor derived cell lines)	strand-break induction [5]	differences in toxicity between the cell lines ([4]; four tumor derived cell lines)
O=c1c(Cl)c(Cl)cnn1CCCl [compound IIa]	three- to five-fold	nearly full toxicity	equally effective	unaffected by loss of KU70	only marginally affected	higher IC50's	ACHN is more sensitive than A549	No correlation	toxic in human cancer and vertebrate cells	most effective against the colon carcinoma derived cell line SW620	did not detect strand-break induction	
O=C(CCl)Nc1ccc(C(=O)N/N=C/c2ccc(Cl)cc2)cc1 [compound Ia]	three- to five-fold	nearly full toxicity	equally effective	unaffected by loss of KU70	only marginally affected	higher IC50's		No correlation	toxic in human cancer and vertebrate cells	most effective against the colon carcinoma derived cell line SW620	did not detect strand-break induction	no significant differences in toxicity
